ChEMBL document CHEMBL4184211, “Regioselectivity of thiouracil alkylation: Application to optimization of Darapladib synthesis” (Bioorg Med Chem Lett, 2018)

How the values were obtained:
[1] = molecular target: T1, Platelet-activating factor acetylhydrolase (Homo sapiens, UniProt Q13093); experiment: (§1) Inhibition of Lp-PLA2 in human plasma LDL fractions using 2-thio platelet-activating factor as substrate by […] dye based spectrophotometry
T1 sequence (Q13093 whole entry): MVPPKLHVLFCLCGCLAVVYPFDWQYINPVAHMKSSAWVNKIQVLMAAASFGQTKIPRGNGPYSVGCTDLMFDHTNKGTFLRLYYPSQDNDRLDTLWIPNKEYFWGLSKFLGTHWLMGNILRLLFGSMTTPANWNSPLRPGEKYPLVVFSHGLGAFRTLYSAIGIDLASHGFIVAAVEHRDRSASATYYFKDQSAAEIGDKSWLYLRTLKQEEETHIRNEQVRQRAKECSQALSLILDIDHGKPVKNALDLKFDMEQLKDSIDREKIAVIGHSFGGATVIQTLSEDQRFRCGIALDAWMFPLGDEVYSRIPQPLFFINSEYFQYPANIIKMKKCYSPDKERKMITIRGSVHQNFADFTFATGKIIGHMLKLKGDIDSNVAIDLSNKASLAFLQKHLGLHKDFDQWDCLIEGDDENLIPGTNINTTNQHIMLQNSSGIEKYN

[2] = molecular target: T2, Platelet-activating factor acetylhydrolase (Homo sapiens) (UniProt Q13093); experiment: as §1
T2 sequence (whole entry): T1 sequence (Q13093 whole entry)

Row | Structure (SMILES) | IC50 ([1]; read-out: IC50) [nM] | IC50 [1] | inhibition [2]
1 | CCN(CC)CCN(Cc1ccc(-c2ccc(C(F)(F)F)cc2)cc1)C(=O)COc1nc(SCc2ccc(F)cc2)nc2c1CCC2 | > 100 | – | –
2 | CC(C)(C)OC(=O)COc1nc(SCc2ccc(F)cc2)nc2c1CCC2 | – | Not Active | –
3 | CC(C)(C)OC(=O)Cn1c(SCc2ccc(F)cc2)nc(=O)c2c1CCC2 | 52.4 | – | Dose-dependent effect
